Assay results taken from PubChem BioAssay (NCI).
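Results reflect a 48-hour exposure of cells in 96-well plates to compound at five concentrations. The concentration for 50% growth inhibition is given as GI50. TGI denotes the concentration required for complete inhibition of growth.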

Experiments:
Test in all cases: NCI-60 cell line screen, 48 h
COLO 205 colon = tested on: COLO 205 colon
UO-31 renal = tested on: UO-31 renal
UACC-62 melanoma = tested on: UACC-62 melanoma
SK-MEL-5 melanoma = tested on: SK-MEL-5 melanoma
HOP-92 NSCLC = tested on: HOP-92 NSCLC
NCI-H522 lung = tested on: NCI-H522 lung
UACC-257 melanoma = tested on: UACC-257 melanoma
SK-MEL-28 melanoma = tested on: SK-MEL-28 melanoma
KM12 colon = tested on: KM12 colon
SK-MEL-2 melanoma = tested on: SK-MEL-2 melanoma
LOX IMVI melanoma = tested on: LOX IMVI melanoma
HCC-2998 colon = tested on: HCC-2998 colon
M14 melanoma = tested on: M14 melanoma
T-47D breast = tested on: T-47D breast
NCI-H226 lung = tested on: NCI-H226 lung
CCRF-CEM leukemia = tested on: CCRF-CEM leukemia
NCI-H23 lung = tested on: NCI-H23 lung
HS 578T breast = tested on: HS 578T breast
SR leukemia = tested on: SR leukemia
SW-620 colon = tested on: SW-620 colon
SF-295 CNS = tested on: SF-295 CNS
NCI-H460 lung = tested on: NCI-H460 lung
BT-549 breast = tested on: BT-549 breast
CAKI-1 renal = tested on: CAKI-1 renal
HL-60(TB) leukemia = tested on: HL-60(TB) leukemia
MDA-MB-231 breast = tested on: MDA-MB-231 breast
SF-539 CNS = tested on: SF-539 CNS
MOLT-4 leukemia = tested on: MOLT-4 leukemia
DU-145 prostate = tested on: DU-145 prostate
RPMI-8226 leukemia = tested on: RPMI-8226 leukemia
HCT-116 colon = tested on: HCT-116 colon
IGROV1 ovarian = tested on: IGROV1 ovarian
HCT-15 colon = tested on: HCT-15 colon
PC-3 prostate = tested on: PC-3 prostate
RXF 393 renal = tested on: RXF 393 renal
HOP-62 NSCLC = tested on: HOP-62 NSCLC
SN12C renal = tested on: SN12C renal
OVCAR-4 ovarian = tested on: OVCAR-4 ovarian
MDA-MB-435 = tested on: MDA-MB-435
MALME-3M melanoma = tested on: MALME-3M melanoma
K-562 leukemia = tested on: K-562 leukemia
MCF7 breast = tested on: MCF7 breast
TK-10 renal = tested on: TK-10 renal
HT29 colon = tested on: HT29 colon
ACHN renal = tested on: ACHN renal
OVCAR-8 ovarian = tested on: OVCAR-8 ovarian
EKVX NSCLC = tested on: EKVX NSCLC
SNB-19 CNS = tested on: SNB-19 CNS
SNB-75 CNS = tested on: SNB-75 CNS
786-0 renal = tested on: 786-0 renal
U251 CNS = tested on: U251 CNS
OVCAR-5 ovarian = tested on: OVCAR-5 ovarian
NCI/ADR-RES ovarian = tested on: NCI/ADR-RES ovarian
A549 NSCLC = tested on: A549 NSCLC
SF-268 CNS = tested on: SF-268 CNS
SK-OV-3 ovarian = tested on: SK-OV-3 ovarian

CS(=O)(=O)Nc1cc(-c2ccc3ncc(C#N)c(NCc4cccc(F)c4)c3c2)cnc1Cl
GI50 (COLO 205 colon): 0.357 µM
TGI (COLO 205 colon): 1.65 µM
GI50 (UO-31 renal): 0.162 µM
TGI (UO-31 renal): > 21.5 µM
GI50 (UACC-62 melanoma): 0.121 µM
TGI (UACC-62 melanoma): 1.19 µM
GI50 (SK-MEL-5 melanoma): 0.179 µM
TGI (SK-MEL-5 melanoma): 0.403 µM
GI50 (HOP-92 NSCLC): 0.0363 µM
TGI (HOP-92 NSCLC): 0.459 µM
GI50 (NCI-H522 lung): 0.369 µM
TGI (NCI-H522 lung): 7.86 µM
GI50 (UACC-257 melanoma): 0.335 µM
TGI (UACC-257 melanoma): 7.14 µM
GI50 (SK-MEL-28 melanoma): 0.191 µM
TGI (SK-MEL-28 melanoma): 4.69 µM
GI50 (KM12 colon): 0.347 µM
TGI (KM12 colon): 2.61 µM
GI50 (SK-MEL-2 melanoma): 0.122 µM
TGI (SK-MEL-2 melanoma): 0.374 µM
GI50 (LOX IMVI melanoma): 0.2 µM
TGI (LOX IMVI melanoma): 1.11 µM
GI50 (HCC-2998 colon): 0.367 µM
TGI (HCC-2998 colon): 6.56 µM
GI50 (M14 melanoma): 0.254 µM
TGI (M14 melanoma): 5.86 µM
GI50 (T-47D breast): 0.0635 µM
TGI (T-47D breast): 1.46 µM
GI50 (NCI-H226 lung): 0.363 µM
TGI (NCI-H226 lung): 22.8 µM
GI50 (CCRF-CEM leukemia): 0.164 µM
TGI (CCRF-CEM leukemia): 20.4 µM
GI50 (NCI-H23 lung): 0.348 µM
TGI (NCI-H23 lung): 13.6 µM
GI50 (HS 578T breast): 0.0513 µM
TGI (HS 578T breast): 0.451 µM
GI50 (SR leukemia): 0.112 µM
TGI (SR leukemia): 2.24 µM
GI50 (SW-620 colon): 0.344 µM
TGI (SW-620 colon): 10.3 µM
GI50 (SF-295 CNS): 0.237 µM
TGI (SF-295 CNS): 2.43 µM
GI50 (NCI-H460 lung): 0.509 µM
TGI (NCI-H460 lung): 11.4 µM
GI50 (BT-549 breast): 0.0736 µM
TGI (BT-549 breast): 0.678 µM
GI50 (CAKI-1 renal): 0.163 µM
TGI (CAKI-1 renal): 2.04 µM
GI50 (HL-60(TB) leukemia): 0.33 µM
TGI (HL-60(TB) leukemia): 4.45 µM
GI50 (MDA-MB-231 breast): 0.35 µM
TGI (MDA-MB-231 breast): 4.96 µM
GI50 (SF-539 CNS): 0.195 µM
TGI (SF-539 CNS): 1.85 µM
GI50 (MOLT-4 leukemia): 0.218 µM
TGI (MOLT-4 leukemia): 1.98 µM
GI50 (DU-145 prostate): 0.336 µM
TGI (DU-145 prostate): 11.8 µM
GI50 (RPMI-8226 leukemia): 0.287 µM
TGI (RPMI-8226 leukemia): 2.16 µM
GI50 (HCT-116 colon): 0.277 µM
TGI (HCT-116 colon): 1.48 µM
GI50 (IGROV1 ovarian): 0.122 µM
TGI (IGROV1 ovarian): 0.972 µM
GI50 (HCT-15 colon): 0.289 µM
TGI (HCT-15 colon): 11.8 µM
GI50 (PC-3 prostate): 0.284 µM
TGI (PC-3 prostate): 5.71 µM
GI50 (RXF 393 renal): 0.11 µM
TGI (RXF 393 renal): 0.784 µM
GI50 (HOP-62 NSCLC): 0.22 µM
TGI (HOP-62 NSCLC): 4.15 µM
GI50 (SN12C renal): 0.278 µM
TGI (SN12C renal): 32.4 µM
GI50 (OVCAR-4 ovarian): 0.309 µM
TGI (OVCAR-4 ovarian): > 27.7 µM
GI50 (MDA-MB-435): 0.258 µM
TGI (MDA-MB-435): 9.5 µM
GI50 (MALME-3M melanoma): 0.0793 µM
TGI (MALME-3M melanoma): 0.559 µM
GI50 (K-562 leukemia): 0.274 µM
TGI (K-562 leukemia): > 59.3 µM
GI50 (MCF7 breast): 0.118 µM
TGI (MCF7 breast): 9.85 µM
GI50 (TK-10 renal): 0.141 µM
TGI (TK-10 renal): 1.22 µM
GI50 (HT29 colon): 0.502 µM
TGI (HT29 colon): 4.64 µM
GI50 (ACHN renal): 0.57 µM
TGI (ACHN renal): > 45.1 µM
GI50 (OVCAR-8 ovarian): 0.366 µM
TGI (OVCAR-8 ovarian): 16.4 µM
GI50 (EKVX NSCLC): 0.381 µM
TGI (EKVX NSCLC): 5.13 µM
GI50 (SNB-19 CNS): 0.292 µM
TGI (SNB-19 CNS): 11 µM
GI50 (SNB-75 CNS): 0.0343 µM
TGI (SNB-75 CNS): 0.448 µM
GI50 (786-0 renal): 0.31 µM
TGI (786-0 renal): 5.52 µM
GI50 (U251 CNS): 0.197 µM
TGI (U251 CNS): 2.68 µM
GI50 (OVCAR-5 ovarian): 0.473 µM
TGI (OVCAR-5 ovarian): 12 µM
GI50 (NCI/ADR-RES ovarian): 1.99 µM
TGI (NCI/ADR-RES ovarian): 40.3 µM
GI50 (A549 NSCLC): 0.695 µM
TGI (A549 NSCLC): 6.8 µM
GI50 (SF-268 CNS): 0.196 µM
TGI (SF-268 CNS): 3.61 µM
GI50 (SK-OV-3 ovarian): 0.263 µM
TGI (SK-OV-3 ovarian): 1.76 µM
